Reference: US10688131B2, “Peptides and scaffolds for use in immunotherapy against head and neck squamous cell carcinoma and other cancers” (Immatics Biotechnologies GmbH, priority 2016, dated 2020)

Experiments:
CD8+ T cells = test: In vitro T-cell priming assay with aAPCs loaded with peptide/MHC complexes and anti-CD28 antibody, pMHC multimer readout; assay type: cell-based, human; settings: percentage of positive wells among evaluable, HLA-A*02 restricted peptides
Excerpt: In order to obtain information regarding the immunogenicity of the TUMAPs of the present invention, the inventors performed investigations using an in vitro T-cell priming assay based on repeated stimulations of CD8+ T cells with artificial antigen presenting cells (aAPCs) loaded with peptide/MHC complexes and anti-CD28 antibody.
In order to perform in vitro stimulations by artificial antigen presenting cells loaded with peptide-MHC complex (pMHC) and anti-CD28 antibody, the inventors first isolated CD8+ T cells from fresh HLA-A*02 leukapheresis products via positive selection using CD8 microbeads (Miltenyi Biotech, Bergisch-Gladbach, Germany) of healthy donors obtained from the University clinics Mannheim, Germany, after informed consent.
PBMCs and isolated CD8+ lymphocytes were incubated in T-cell medium (TCM) until use consisting of RPMI-Glutamax (Invitrogen, Karlsruhe, Germany) supplemented with 10% heat inactivated human AB serum (PAN-Biotech, Aidenbach, Germany), 100 U/ml Penicillin/100 μg/ml Streptomycin (Cambrex, Cologne, Germany), 1 mM sodium pyruvate (CC Pro, Oberdorla, Germany), 20 μg/ml Gentamycin (Cambrex). 2.5 ng/ml IL-7 (PromoCell, Heidelberg, Germany) and 10 U/ml IL-2 (Novartis Pharma, Nürnberg, Germany) were also added to the TCM at this step.
Generation of pMHC/anti-CD28 coated beads, T-cell stimulations and readout was performed in a highly defined in vitro system using four different pMHC molecules per stimulation condition and 8 different pMHC molecules per readout condition.
The purified co-stimulatory mouse IgG2a anti human CD28 Ab 9.3 (Jung et al., 1987) was chemically biotinylated using Sulfo-N-hydroxysuccinimidobiotin as recommended by the manufacturer (Perbio, Bonn, Germany). Beads used were 5.6 μm diameter streptavidin coated polystyrene particles (Bangs Laboratories, Illinois, USA).
pMHC used for positive and negative control stimulations were A*0201/MLA-001 (peptide […] (SEQ ID NO. 157) from modified Melan-A/MART-1) and A*0201/DDX5-001 ([…] from DDX5, SEQ ID NO. 158), respectively.
800.000 beads/200 μl were coated in 96-well plates in the presence of 4×12.5 ng different biotin-pMHC, washed and 600 ng biotin anti-CD28 were added subsequently in a volume of 200 μl. Stimulations were initiated in 96-well plates by co-incubating 1×10^6 CD8+ T cells with 2×10^5 washed coated beads in 200 μl TCM supplemented with 5 ng/ml IL-12 (PromoCell) for 3 days at 37° C. Half of the medium was then exchanged by fresh TCM supplemented with 80 U/ml IL-2 and incubating was continued for 4 days at 37° C. This stimulation cycle was performed for a total of three times. For the pMHC multimer readout using 8 different pMHC molecules per condition, a two-dimensional combinatorial coding approach was used as previously described (Andersen et al., 2012) with minor modifications encompassing coupling to 5 different fluorochromes. Finally, multimeric analyses were performed by staining the cells with Live/dead near IR dye (Invitrogen, Karlsruhe, Germany), CD8-FITC antibody clone SK1 (BD, Heidelberg, Germany) and fluorescent pMHC multimers. For analysis, a BD LSRII SORP cytometer equipped with appropriate lasers and filters was used. Peptide specific cells were calculated as percentage of total CD8+ cells. Evaluation of multimeric analysis was done using the FlowJo software (Tree Star, Oregon, USA). In vitro priming of specific multimer+CD8+ lymphocytes was detected by comparing to negative control stimulations.
Exemplary flow cytometry results after TUMAP-specific multimer staining for 2 peptides of the invention are shown in FIGS. 3A and 3B together with corresponding negative controls. Additional exemplary flow cytometry results after TUMAP-specific multimer staining for 3 peptides of the invention are shown in FIGS. 4A-4C together with corresponding negative controls.

HLA-A*02:01 = HLA-A*02:01 (Homo sapiens, UniProt P04439, D140Y/D185E/D98H/E176V/E277Q/G131W/G231S/I119V/I121R/I166T/I218V/L300P/L318F/N151K/N90K/P208A/P217A/Q86G/Q94H/R138H/R169H/T345S); test: MHC binding assay: UV-ligand exchange with β2m ELISA; settings: binding of HLA-class I restricted peptides to HLA-A*02:01
Excerpt: Candidate peptides for T cell based therapies according to the present invention were further tested for their MHC binding capacity (affinity). The individual peptide-MHC complexes were produced by UV-ligand exchange, where a UV-sensitive peptide is cleaved upon UV-irradiation, and exchanged with the peptide of interest as analyzed. Only peptide candidates that can effectively bind and stabilize the peptide-receptive MHC molecules prevent dissociation of the MHC complexes. To determine the yield of the exchange reaction, an ELISA was performed based on the detection of the light chain (β2m) of stabilized MHC complexes. The assay was performed as generally described in Rodenko et al. (Rodenko et al., 2006).
96 well MAXISorp plates (NUNC) were coated over night with 2 ug/ml streptavidin in PBS at room temperature, washed 4× and blocked for 1 h at 37° C. in 2% BSA containing blocking buffer. Refolded HLA-A*02:01/MLA-001 monomers served as standards, covering the range of 15-500 ng/ml. Peptide-MHC monomers of the UV-exchange reaction were diluted 100-fold in blocking buffer. Samples were incubated for 1 h at 37° C., washed four times, incubated with 2 ug/ml HRP conjugated anti-β2m for 1 h at 37° C., washed again and detected with TMB solution that is stopped with […]. Absorption was measured at 450 nm. Candidate peptides that show a high exchange yield (preferably higher than 50%, most preferred higher than 75%) are generally preferred for a generation and production of antibodies or fragments thereof, and/or T cell receptors or fragments thereof, as they show sufficient avidity to the MHC molecules and prevent dissociation of the MHC complexes.

| Substance | Wells positive [%] (CD8+ T cells) | Peptide exchange (MHC class I binding score, peptide exchange yield) (HLA-A*02:01) |
| --- | --- | --- |
| 17 (SIWPALTQV; listed as Homo sapiens) [compound 17] | ++++ (>=70% = ++++) | ++++ (>75% = ++++) |
| 20 (YLINEIDRIRA; listed as Homo sapiens) [compound 20] | + (<20% = +) | ++++ (>75% = ++++) |
| 16 (ALKDSVQRA; listed as Homo sapiens) [compound 16] | + (<20% = +) | +++ (>50 = +++) |
| 82 (VLDINDNPPV; listed as Homo sapiens) [compound 82] | + (<20% = +) | +++ (>50 = +++) |
| 28 (AVDPVSGSLYV; listed as Homo sapiens) [compound 28] | +++ (50%-69% = +++) | ++++ (>75% = ++++) |
| 12 (TLTDEINFL; listed as Homo sapiens) [compound 12] | + (<20% = +) | ++++ (>75% = ++++) |
| 18 (YLYPDLSRL; listed as Homo sapiens) [compound 18] | + (<20% = +) | ++++ (>75% = ++++) |
| 10 (TLWPATPPKA; listed as Homo sapiens) [compound 10] | + (<20% = +) | +++ (>50 = +++) |
